Reference: patent US9931327B2, “Derivatives of 1-phenyl-2-pyridinyl alkyl alcohols as phosphodiesterase inhibitors” (Chiesi Farmaceutici S.p.A., priority 2011, dated 2018)

Each molecule was assayed on LPS-induced TNF-α release in peripheral blood mononuclear cells (PBMCs) (assay: In vitro determination of PDE4 inhibitory activity in the PBMCs assay (LPS-induced TNF-α release)). Details: PBMC; human PBMCs, LPS 3 ng/ml, 18 hours, TNF-α by ELISA; read-out: PDE4 inhibition (IC50, 50% inhibition of LPS-induced TNF-α release).
Type: cell-based, human
Outline: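 Cryopreserved human PBMCs (10^5 cells/well) pre-incubated 30 min with compound (10^−12 to 10^−6 M or 10^−3 to 10^−7 M), then stimulated with LPS 3 ng/ml for 18 h at 37 °C. TNF-α in medium by ELISA; IC50 as mean ± 95% confidence limits.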

Row | Structure (SMILES) | IC50 [nM]
1 | COc1ccc(S(=O)(=O)N2CCS[C@H]2C(=O)O[C@@H](Cc2c(Cl)c[n+]([O-])cc2Cl)c2ccc(OC(F)F)c(OCC3CC3)c2)cc1OC [Compound 93, 3,5-dichloro-4-((S)-2-(3-(cyclopropylmethoxy)-4-(difluoromethoxy)phenyl)-2-((S)-3-(3,4-dimethoxyphenylsulfonyl)thiazolidine-2-carbonyloxy)ethyl)pyridine 1-oxide] | < 0.1
2 | CNS(=O)(=O)c1ccc(S(=O)(=O)N2CCS[C@H]2C(=O)O[C@@H](Cc2c(Cl)c[n+]([O-])cc2Cl)c2ccc(OC(F)F)c(OCC3CC3)c2)cc1 [Compound 94, 3,5-dichloro-4-((S)-2-(3-(cyclopropylmethoxy)-4-(difluoromethoxy)phenyl)-2-((S)-3-(4-(N-methylsulfamoyl)phenylsulfonyl)thiazolidine-2-carbonyloxy)ethyl)pyridine 1-oxide] | < 0.1
3 | O=C(O[C@@H](Cc1c(Cl)c[n+]([O-])cc1Cl)c1ccc(OC(F)F)c(OCC2CC2)c1)[C@@H]1SCCN1S(=O)(=O)c1ccco1 [Compound 95, 3,5-dichloro-4-((S)-2-(3-(cyclopropylmethoxy)-4-(difluoromethoxy)phenyl)-2-((S)-3-(furan-2-ylsulfonyl)thiazolidine-2-carbonyloxy)ethyl)pyridine 1-oxide] | < 0.1
4 | O=C(O[C@@H](Cc1c(Cl)c[n+]([O-])cc1Cl)c1ccc(OC(F)F)c(OCC2CC2)c1)[C@@H]1SCCN1S(=O)(=O)c1ccoc1 [Compound 96, 3,5-dichloro-4-((S)-2-(3-(cyclopropylmethoxy)-4-(difluoromethoxy)phenyl)-2-((S)-3-(furan-3-ylsulfonyl)thiazolidine-2-carbonyloxy)ethyl)pyridine 1-oxide] | < 0.1
5 | CN(C)S(=O)(=O)c1cccc(S(=O)(=O)N2CCS[C@H]2C(=O)O[C@@H](Cc2c(Cl)c[n+]([O-])cc2Cl)c2ccc(OC(F)F)c(OCC3CC3)c2)c1 [Compound 97, 3,5-dichloro-4-((S)-2-(3-(cyclopropylmethoxy)-4-(difluoromethoxy)phenyl)-2-((S)-3-(3-(N,N-dimethylsulfamoyl)phenylsulfonyl)thiazolidine-2-carbonyloxy)ethyl)pyridine 1-oxide] | < 0.1
6 | COc1ccc(S(=O)(=O)N2CCCC[C@H]2C(=O)O[C@@H](Cc2c(Cl)c[n+]([O-])cc2Cl)c2ccc(OC(F)F)c(OCC3CC3)c2)cc1OC [Compound 98, 3,5-dichloro-4-((S)-2-(3-(cyclopropylmethoxy)-4-(difluoromethoxy)phenyl)-2-((S)-1-(3,4-dimethoxyphenylsulfonyl)piperidine-2-carbonyloxy)ethyl)pyridine 1-oxide] | 0.1 to 1
7 | O=C(O[C@@H](Cc1c(Cl)c[n+]([O-])cc1Cl)c1ccc(OC(F)F)c(OCC2CC2)c1)[C@@H]1CCCCN1S(=O)(=O)c1cccnc1 [Compound 99, 3,5-dichloro-4-((S)-2-(3-(cyclopropylmethoxy)-4-(difluoromethoxy)phenyl)-2-((S)-1-(pyridin-3-ylsulfonyl)piperidine-2-carbonyloxy)ethyl)pyridine 1-oxide] | 1 to 10
8 | COC(=O)c1ccc(S(=O)(=O)N2CCS[C@H]2C(=O)O[C@@H](Cc2c(Cl)c[n+]([O-])cc2Cl)c2ccc(OC(F)F)c(OCC3CC3)c2)cc1 [Compound 100, 3,5-dichloro-4-((S)-2-(3-(cyclopropylmethoxy)-4-(difluoromethoxy)phenyl)-2-((S)-3-(4-(methoxycarbonyl)phenylsulfonyl)thiazolidine-2-carbonyloxy)ethyl)pyridine 1-oxide] | 1 to 10
9 | COC(=O)c1ccccc1S(=O)(=O)N1CCS[C@H]1C(=O)O[C@@H](Cc1c(Cl)c[n+]([O-])cc1Cl)c1ccc(OC(F)F)c(OCC2CC2)c1 [Compound 101, 3,5-dichloro-4-((S)-2-(3-(cyclopropylmethoxy)-4-(difluoromethoxy)phenyl)-2-((S)-3-(2-(methoxycarbonyl)phenylsulfonyl)thiazolidine-2-carbonyloxy)ethyl)pyridine 1-oxide] | < 0.1
